Data from publication PMC7529893, “Structural basis for substrate recognition and chemical inhibition of oncogenic MAGE ubiquitin ligases” (Nature Communications, 2020).

molecular target: T1, MAGE-A11:PCF11 interaction (GST-MAGE-A11 and FAM-PCF11_4) (Homo sapiens, UniProt P43364); assay: TR-FRET primary / single point screen at 15 µM; format: binding; conditions: single point TR-FRET screening of 797 quinoline compounds against MAGE-A11:PCF11
T1 construct: GST-MAGE-A11 MHD (human MAGE-A11 MHD amino acid 218-429); made in house; host or cells: E. coli BL21(DE3)
T1 sequence (P43364 218-429): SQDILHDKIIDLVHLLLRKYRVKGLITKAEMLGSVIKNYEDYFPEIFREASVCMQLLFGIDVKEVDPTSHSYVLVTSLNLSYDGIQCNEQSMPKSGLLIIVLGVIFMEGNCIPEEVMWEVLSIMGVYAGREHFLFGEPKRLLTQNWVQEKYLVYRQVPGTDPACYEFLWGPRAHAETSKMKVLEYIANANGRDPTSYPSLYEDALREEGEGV
Method in brief: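 Single-point screen at 15 µM final compound in 50 mM Tris pH 7.5, 20 mM MgCl2, 0.1 mg/ml BSA, 1 mM DTT, with 200 nM FAM-PCF11_4, 5 nM Tb-anti-GST and 5 nM GST-MAGE-A11. After 90 min at room temperature, the 520/490 nm TR-FRET ratio (340 nm excitation) gave %Inhibition against no-MAGE-A11 and DMSO controls.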

Row | SMILES | percent inhibition (TR-FRET)
1 | CCCN(CCCNc1c2ccc(Cl)cc2nc2ccc(OC)cc12)Cc1ccccn1 [SJ000520919] | -146.21
2 | CCCN(CCCNc1c2ccc(Cl)cc2nc2ccc(OC)cc12)Cc1cccs1 [SJ000520920] | -164.134
3 | CCCN(CCCNc1c2ccc(Cl)cc2nc2ccc(OC)cc12)Cc1ccsc1 [SJ000520922] | -258.026
4 | CCCN(CCCNc1c2ccc(Cl)cc2nc2ccc(OC)cc12)Cc1ccc[nH]1 [SJ000520923] | -271.048
5 | CCCN(CCCNc1c2ccc(Cl)cc2nc2ccc(OC)cc12)Cc1ccccc1 [SJ000520925] | -127.926
6 | CCCN(CCCNc1c2ccc(Cl)cc2nc2ccc(OC)cc12)Cc1ccc(C)s1 [SJ000520927] | -124.818
7 | CCCN(CCCNc1c2ccc(Cl)cc2nc2ccc(OC)cc12)Cc1ccc(Br)o1 [SJ000520929] | -137.318
8 | CCCN(CCCNc1c2ccc(Cl)cc2nc2ccc(OC)cc12)Cc1cc(OC)ccc1O [SJ000520933] | -150.831
9 | CCCN(CCCNc1c2ccc(Cl)cc2nc2ccc(OC)cc12)Cc1ccco1 [SJ000520935] | -202.643
10 | CCCN(CCCNc1c2ccc(Cl)cc2nc2ccc(OC)cc12)CC1CC1 [SJ000520936] | -271.356
11 | CCCN(CCCNc1c2ccc(Cl)cc2nc2ccc(OC)cc12)Cc1ccoc1 [SJ000520937] | -394.576
12 | CCCN(CCCNc1c2ccc(Cl)cc2nc2ccc(OC)cc12)CC1CCCCC1 [SJ000520938] | -163.904
13 | CCCN(CCCNc1c2ccc(Cl)cc2nc2ccc(OC)cc12)CC(CC)CC [SJ000520939] | -160.284
14 | CCCN(CCCNc1c2ccc(Cl)cc2nc2ccc(OC)cc12)Cc1ccc2c(c1)OCO2 [SJ000520940] | -193.541
15 | CCCCCN(CCC)CCCNc1c2ccc(Cl)cc2nc2ccc(OC)cc12 [SJ000520941] | -210.345
16 | CCCN(CCCNc1c2ccc(Cl)cc2nc2ccc(OC)cc12)Cc1ccc(OC)cc1 [SJ000520943] | -241.432
17 | CCCN(CCCNc1c2ccc(Cl)cc2nc2ccc(OC)cc12)Cc1ccccc1F [SJ000520944] | -118.554
18 | CCCN(CCCNc1c2ccc(Cl)cc2nc2ccc(OC)cc12)Cc1ccc(F)cc1 [SJ000520946] | -141.659
19 | CCCN(CCCNc1c2ccc(Cl)cc2nc2ccc(OC)cc12)Cc1ccccc1[N+](=O)[O-] [SJ000520947] | -228.339
20 | CCCN(CCCNc1c2ccc(Cl)cc2nc2ccc(OC)cc12)Cc1ccccc1OC [SJ000520950] | -271.121
21 | CCCN(CCCNc1c2ccc(Cl)cc2nc2ccc(OC)cc12)Cc1ccccc1C(=O)O [SJ000520951] | -258.592
22 | CCCN(CCCNc1c2ccc(Cl)cc2nc2ccc(OC)cc12)Cc1ccc2ccccc2c1 [SJ000520953] | -129.124
23 | CCCN(CCCNc1c2ccc(Cl)cc2nc2ccc(OC)cc12)Cc1cccc(C)c1 [SJ000520954] | -157.809

Row | SMILES | percent inhibition (TR-FRET)
24 | CCCN(CCCNc1c2ccc(Cl)cc2nc2ccc(OC)cc12)Cc1ccc(OC)c(OC)c1 [SJ000520957] | -175.453
25 | CCCN(CCCNc1c2ccc(Cl)cc2nc2ccc(OC)cc12)CCCc1ccccc1 [SJ000520958] | -267.24
26 | CCCN(CCCNc1c2ccc(Cl)cc2nc2ccc(OC)cc12)CC(C)CC (centres unmarked) [SJ000520959] | -264.817
27 | CCCN(CCCNc1c2ccc(Cl)cc2nc2ccc(OC)cc12)Cc1cc(C)ccc1C [SJ000520960] | -119.324
28 | CCCN(CCCNc1c2ccc(Cl)cc2nc2ccc(OC)cc12)Cc1cccc(OC)c1 [SJ000520961] | -244.583
29 | CCCN(CCCNc1c2ccc(Cl)cc2nc2ccc(OC)cc12)CCc1ccccc1 [SJ000520962] | -591.727
30 | CCCCCCN(CCC)CCCNc1c2ccc(Cl)cc2nc2ccc(OC)cc12 [SJ000520963] | -153.702
31 | COc1ccc2nc3cc(Cl)ccc3c(NCCCNCc3cccn3C)c2c1 [SJ000520985] | -402.468
32 | COc1ccc2nc3cc(Cl)ccc3c(NCCCNCc3cccnc3)c2c1 [SJ000520986] | -408.98
33 | COc1ccc2nc3cc(Cl)ccc3c(NCCCNCc3cn(C)c4ccccc34)c2c1 [SJ000520987] | -252.354
34 | COc1ccc2nc3cc(Cl)ccc3c(NCCCNCc3nccs3)c2c1 [SJ000520989] | -355.207
35 | COc1ccc2nc3cc(Cl)ccc3c(NCCCNCc3cccc(C(F)(F)F)c3)c2c1 [SJ000520990] | -408.139
36 | COc1ccc2nc3cc(Cl)ccc3c(NCCCNCc3cccc4c3OCO4)c2c1 [SJ000520991] | -257.115
37 | COc1ccc2nc3cc(Cl)ccc3c(NCCCNCc3ccc(OC(F)(F)F)cc3)c2c1 [SJ000520992] | -200.963
38 | COc1ccc2nc3cc(Cl)ccc3c(NCCCNCc3cc(F)ccc3OC)c2c1 [SJ000520993] | -365.36
39 | COc1ccc2nc3cc(Cl)ccc3c(NCCCNCCC(C)(C)C)c2c1 [SJ000520994] | -456.31
40 | CCCCNCCCNc1c2ccc(Cl)cc2nc2ccc(OC)cc12 [SJ000520995] | -405.549
41 | COc1ccc2nc3cc(Cl)ccc3c(NCCCNCc3cc(Br)cs3)c2c1 [SJ000520996] | -287.642
42 | COc1ccc2nc3cc(Cl)ccc3c(NCCCNCc3cc4ccccc4o3)c2c1 [SJ000520997] | -146.701
43 | COc1ccc(F)c(CNCCCNc2c3ccc(Cl)cc3nc3ccc(OC)cc23)c1 [SJ000520998] | -354.997
44 | COc1ccc2nc3cc(Cl)ccc3c(NCCCNCc3c(F)cccc3C(F)(F)F)c2c1 [SJ000520999] | -116.734
45 | COc1ccc2nc3cc(Cl)ccc3c(NCCCNCc3cc4ccccc4s3)c2c1 [SJ000521000] | -220.357

same assay, conditions: single point TR-FRET screening of quinoline compounds against MAGE-A11:PCF11; 15 µM

Row | SMILES | percent inhibition (TR-FRET)
46 | CCCN(CCCNc1c2ccc(Cl)cc2nc2ccc(OC)cc12)Cc1ccncc1 [SJ000520918] | -1.797
47 | CCCN(CCCNc1c2ccc(Cl)cc2nc2ccc(OC)cc12)Cc1sccc1C [SJ000520921] | -83.8109
48 | CCCN(CCCNc1c2ccc(Cl)cc2nc2ccc(OC)cc12)Cc1ccc(Br)s1 [SJ000520924] | -56.4502
49 | CCCN(CCCNc1c2ccc(Cl)cc2nc2ccc(OC)cc12)Cc1ccccc1O [SJ000520926] | -91.8376
50 | CCCN(CCCNc1c2ccc(Cl)cc2nc2ccc(OC)cc12)Cc1ccccc1C(F)(F)F [SJ000520928] | 14.1686
51 | CCCN(CCCNc1c2ccc(Cl)cc2nc2ccc(OC)cc12)Cc1cccc(OC)c1O [SJ000520930] | -81.9559
52 | CCCN(CCCNc1c2ccc(Cl)cc2nc2ccc(OC)cc12)Cc1cc(F)ccc1OC [SJ000520931] | 1.847
53 | CCCN(CCCNc1c2ccc(Cl)cc2nc2ccc(OC)cc12)Cc1ccc(C)o1 [SJ000520932] | 0.9854
54 | CCCN(CCCNc1c2ccc(Cl)cc2nc2ccc(OC)cc12)Cc1c(C)cc(C)cc1C [SJ000520934] | -46.315
55 | CCCN(CCCNc1c2ccc(Cl)cc2nc2ccc(OC)cc12)Cc1ccc(F)c(F)c1 [SJ000520942] | 0.9703
56 | CCCN(CCCNc1c2ccc(Cl)cc2nc2ccc(OC)cc12)Cc1cccc(F)c1 [SJ000520945] | -90.1278
57 | CCCN(CCCNc1c2ccc(Cl)cc2nc2ccc(OC)cc12)Cc1cccc([N+](=O)[O-])c1 [SJ000520948] | -10.7413
58 | CCCN(CCCNc1c2ccc(Cl)cc2nc2ccc(OC)cc12)Cc1ccc([N+](=O)[O-])cc1 [SJ000520949] | -9.039
59 | CCCN(CCCNc1c2ccc(Cl)cc2nc2ccc(OC)cc12)Cc1cccc2ccccc12 [SJ000520952] | -40.7667
60 | CCCN(CCCNc1c2ccc(Cl)cc2nc2ccc(OC)cc12)Cc1ccc(N(C)C)cc1 [SJ000520955] | -10.0604
61 | CCCN(CCCNc1c2ccc(Cl)cc2nc2ccc(OC)cc12)Cc1ccc(Cl)cc1Cl [SJ000520956] | 9.598
62 | COc1ccc2nc3cc(Cl)ccc3c(NCCCNCc3cccc(OC(F)(F)F)c3)c2c1 [SJ000520988] | -73.5426
